The record followed here is patent publication US10722501B2 (BAYER AKTIENGESELLSCHAFT, priority 2016, dated 2020).

The structures appear in SMILES notation.

In this assay the target is T1, recombinant full-length human prolyl endopeptidase (PREP) (Homo sapiens, UniProt P48147).
T1 construct: To recombinant full-length human prolyl endopeptidase (PREP, R&D-Systems, 4308-SE); purchased R&D-Systems 4308-SE
T1 sequence (P48147 1-710): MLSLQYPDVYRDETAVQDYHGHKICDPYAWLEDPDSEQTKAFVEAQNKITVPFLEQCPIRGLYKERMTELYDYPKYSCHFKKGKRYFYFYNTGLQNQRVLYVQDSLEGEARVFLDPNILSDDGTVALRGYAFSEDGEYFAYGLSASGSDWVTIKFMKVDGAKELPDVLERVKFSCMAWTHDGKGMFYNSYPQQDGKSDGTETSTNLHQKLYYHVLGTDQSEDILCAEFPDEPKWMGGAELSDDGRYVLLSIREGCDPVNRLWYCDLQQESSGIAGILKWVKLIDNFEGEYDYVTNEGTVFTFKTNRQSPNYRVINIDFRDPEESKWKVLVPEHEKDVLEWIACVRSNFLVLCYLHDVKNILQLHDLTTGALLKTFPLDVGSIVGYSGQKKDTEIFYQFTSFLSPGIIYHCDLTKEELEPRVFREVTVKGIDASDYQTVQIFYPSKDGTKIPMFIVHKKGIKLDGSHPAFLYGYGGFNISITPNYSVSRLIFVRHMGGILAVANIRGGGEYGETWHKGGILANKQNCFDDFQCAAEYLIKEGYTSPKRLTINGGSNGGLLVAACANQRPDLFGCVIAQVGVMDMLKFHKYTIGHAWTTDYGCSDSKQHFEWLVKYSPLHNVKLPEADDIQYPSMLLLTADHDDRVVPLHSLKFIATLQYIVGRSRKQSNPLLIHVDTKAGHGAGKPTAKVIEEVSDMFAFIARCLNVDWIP
In words: Biochemical human prolyl endopeptidase (PREP) assay with fluorescently labelled substrate. The note with it: substrate Z-Gly-Pro-AMC 50 μM, 32° C., 60 min; some as mean values from multiple independent determinations. In outline:
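Initial rates of fluorescence increase from 50 μM Z-Gly-Pro-AMC cleavage (ex 360/em 465 nm, 60 min, 32° C) give percent PREP activity versus no-compound control, and IC50 is interpolated. Enzyme used at 0.4 nM (final, example) in Tris pH 7.5 with EDTA, GSH, BSA and Brij-35; compounds span 1 nM to 30 μM.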
As to `O=C([C@@H]1CCCc2nn(Cc3ccc(Br)cc3F)c(=O)n21)N1CC[C@H](F)C1` [Example 214, (5S)-2-(4-Bromo-2-fluorobenzyl)-5-{[(3S)-3-fluoropyrrolidin-1-yl]carbonyl}-5,6,7,8-tetrahydro[1,2,4]triazolo[4,3-a]pyridin-3(2H)-one], the IC50 stood at 0.2 nM.
Consider `O=C(C1C(C(F)(F)F)CCc2nn(Cc3ncc(Cl)cc3F)c(=O)n21)N1CC[C@H](F)C1` (mixture of isomers) [Example 294, (5RS,6RS)-2-[(5-Chloro-3-fluoropyridin-2-yl)methyl]-5-{[(3S)-3-fluoropyrrolidin-1-yl]carbonyl}-6-(trifluoromethyl)-5,6,7,8-tetrahydro[1,2,4]triazolo[4,3-a]pyridin-3(2H)-one], for which the IC50 is 20 nM.
Consider `Cc1ccc(Cn2nc3n(c2=O)[C@H](C(=O)N2CC(F)C2)CCC3)cc1` [Example 113, (5S)-5-[(3-Fluoroazetidin-1-yl)carbonyl]-2-(4-methylbenzyl)-5,6,7,8-tetrahydro[1,2,4]triazolo[4,3-a]pyridin-3(2H)-one], for which the IC50 was determined as 0.42 nM.
For `O=C(C1CCCc2nn(Cc3ccc(F)c(Cl)c3)c(=O)n21)N1CCC(F)(F)C1` (racemic) [Example 86, (5RS)-2-(3-Chloro-4-fluorobenzyl)-5-[(3,3-difluoropyrrolidin-1-yl)carbonyl]-5,6,7,8-tetrahydro[1,2,4]triazolo[4,3-a]pyridin-3(2H)-one], the IC50 came out at 1 nM.
Consider `O=C([C@@H]1CCCc2nn(Cc3ccc(C(F)F)nc3)c(=O)n21)N1CCC(F)(F)C1` [Example 208, (5S)-2-{[6-(Difluoromethyl)pyridin-3-yl]methyl}-5-[(3,3-difluoropyrrolidin-1-yl)carbonyl]-5,6,7,8-tetrahydro[1,2,4]triazolo[4,3-a]pyridin-3(2H)-one], for which the IC50 was found to be 15 nM.
Regarding `O=C([C@@H]1CCCc2nn(Cc3ncc(Cl)cc3Cl)c(=O)n21)N1C[C@@H](F)[C@@H](F)C1` [Example 400, (5S)-2-[(3,5-Dichloropyridin-2-yl)methyl]-5-{[(3R,4S)-3,4-difluoropyrrolidin-1-yl]carbonyl}-5,6,7,8-tetrahydro[1,2,4]triazolo[4,3-a]pyridin-3(2H)-one], the IC50 was determined as 0.455 nM.
As to `O=C([C@@H]1CCCc2nn(Cc3ccc(F)c(F)c3)c(=O)n21)N1CCC(F)(F)C1` [Example 468, (5S)-2-(3,4-Difluorobenzyl)-5-[(3,3-difluoropyrrolidin-1-yl)carbonyl]-5,6,7,8-tetrahydro[1,2,4]triazolo[4,3-a]pyridin-3(2H)-one], the IC50 worked out at 1.4 nM.
Take `O=C(C1CCCc2nn(Cc3cc(F)cc(C(F)(F)F)c3)c(=O)n21)N1CCCC1` (racemic) [Example 72]: the IC50 stood at 0.83 nM.
On to `O=C(C1CC(C(F)(F)F)Cc2nn(Cc3ccc(Cl)nc3)c(=O)n21)N1CCCC1` (single isomer, unassigned) [Example 227, (5RS,7RS)-2-[(6-Chloropyridin-3-yl)methyl]-5-(pyrrolidin-1-ylcarbonyl)-7-(trifluoromethyl)-5,6,7,8-tetrahydro[1,2,4]triazolo[4,3-a]pyridin-3(2H)-one], for which the IC50 worked out at 24 nM.
Consider `COc1ccc(Cn2nc3n(c2=O)C(C(=O)N2CCCC2)CCC3)cc1C(F)(F)F` (racemic) [Example 63], for which the IC50 turned out to be 0.74 nM.
`O=C([C@@H]1CCCc2nn(Cc3ccc(F)nc3)c(=O)n21)N1CC(F)(F)C1` [Example 537, (5S)-5-[(3,3-Difluoroazetidin-1-yl)carbonyl]-2-[(6-fluoropyridin-3-yl)methyl]-5,6,7,8-tetrahydro[1,2,4]triazolo[4,3-a]pyridin-3(2H)-one]: the half-maximal inhibitory concentration (IC50) amounted to 8.8 nM.
As for `COc1ccc(Cn2nc3n(c2=O)[C@H](C(=O)N2C[C@@H](F)[C@@H](F)C2)CCC3)cc1` [Example 453, (5S)-5-{[(3R,4S)-3,4-Difluoropyrrolidin-1-yl]carbonyl}-2-(4-methoxybenzyl)-5,6,7,8-tetrahydro[1,2,4]triazolo[4,3-a]pyridin-3(2H)-one], the figure is 0.375 nM; as for `Cc1nc(Cn2nc3n(c2=O)C(C(=O)N2CCCC2)CCC3)no1` (racemic) [Example 12, (5RS)-2-[(5-Methyl-1,2,4-oxadiazol-3-yl)methyl]-5-(pyrrolidin-1-ylcarbonyl)-5,6,7,8-tetrahydro[1,2,4]triazolo[4,3-a]pyridin-3(2H)-one], 99.5 nM.
As to `COc1cccc(Cn2nc3n(c2=O)C(C(=O)N2CCC(F)(F)C2)CCC3)c1` (racemic) [Example 48, (5RS)-5-[(3,3-Difluoropyrrolidin-1-yl)carbonyl]-2-(3-methoxybenzyl)-5,6,7,8-tetrahydro[1,2,4]triazolo[4,3-a]pyridin-3(2H)-one], the IC50 was determined as 5 nM.
For the molecule `O=C(C1CCCc2nn(Cc3ccc(F)c(F)c3)c(=O)n21)N1CCCC1` (racemic) [Example 17, (5RS)-2-(3,4-Difluorobenzyl)-5-(pyrrolidin-1-ylcarbonyl)-5,6,7,8-tetrahydro[1,2,4]triazolo[4,3-a]pyridin-3(2H)-one], the half-maximal inhibitory concentration (IC50) is 1.2 nM.
With `O=C([C@@H]1CCCc2nn(Cc3cccc(C(F)(F)F)n3)c(=O)n21)N1CCC(F)(F)C1` [Example 368, (5S)-5-[(3,3-Difluoropyrrolidin-1-yl)carbonyl]-2-{[6-(trifluoromethyl)pyridin-2-yl]methyl}-5,6,7,8-tetrahydro[1,2,4]triazolo[4,3-a]pyridin-3(2H)-one], the IC50 came to 9 nM.
Under `O=C([C@@H]1CCCc2nn(Cc3ccc(Cl)nc3)c(=O)n21)N1CC(F)C1` [Example 421, (5S)-2-[(6-Chloropyridin-3-yl)methyl]-5-[(3-fluoroazetidin-1-yl)carbonyl]-5,6,7,8-tetrahydro[1,2,4]triazolo[4,3-a]pyridin-3(2H)-one] stands 0.91 nM; under `O=C(C1CC(C(F)(F)F)Cc2nn(Cc3ccc(Cl)nc3)c(=O)n21)N1CC(F)C1` (single isomer, unassigned) [Example 239, (5RS,7RS)-2-[(6-Chloropyridin-3-yl)methyl]-5-[(3-fluoroazetidin-1-yl)carbonyl]-7-(trifluoromethyl)-5,6,7,8-tetrahydro[1,2,4]triazolo[4,3-a]pyridin-3(2H)-one], 11.2 nM; under `O=C([C@@H]1CCCc2nn(Cc3ccc(F)c(Cl)c3)c(=O)n21)N1CCC(F)(F)C1` [Example 455, (5S)-2-(3-Chloro-4-fluorobenzyl)-5-[(3,3-difluoropyrrolidin-1-yl)carbonyl]-5,6,7,8-tetrahydro[1,2,4]triazolo[4,3-a]pyridin-3(2H)-one], 0.77 nM.
Under `O=C([C@@H]1CCCc2nn(Cc3ccc(F)c(Cl)c3)c(=O)n21)N1CCC2CC21` (single isomer, unassigned) [Example 203] stands 0.82 nM; under `O=C([C@@H]1CCCc2nn(Cc3cncc(Cl)c3)c(=O)n21)N1CC(F)(F)C1` [Example 437, (5S)-2-[(5-Chloropyridin-3-yl)methyl]-5-[(3,3-difluoroazetidin-1-yl)carbonyl]-5,6,7,8-tetrahydro[1,2,4]triazolo[4,3-a]pyridin-3(2H)-one], 7.1 nM.
Take `O=C(C1C(C(F)(F)F)CCc2nn(Cc3ncc(Cl)cc3Cl)c(=O)n21)N1CC[C@H](F)C1` (single isomer, unassigned) [Example 283]: the IC50 stood at 6.2 nM.
`Cc1ccc(Cn2nc3n(c2=O)C(C(=O)N2CCCC2)CCC3)cc1` (racemic) [Example 25, (5RS)-2-(4-Methylbenzyl)-5-(pyrrolidin-1-ylcarbonyl)-5,6,7,8-tetrahydro[1,2,4]triazolo[4,3-a]pyridin-3(2H)-one]: the IC50 is 0.76 nM.
Take `O=C([C@@H]1CCCc2nn(Cc3ccc(F)c(F)c3)c(=O)n21)N1CC[C@H](F)C1` [Example 466, (5S)-2-(3,4-Difluorobenzyl)-5-{[(3S)-3-fluoropyrrolidin-1-yl]carbonyl}-5,6,7,8-tetrahydro[1,2,4]triazolo[4,3-a]pyridin-3(2H)-one]: the IC50 was 0.41 nM.
`O=C([C@@H]1CCCc2nn(Cc3cc(C(F)(F)F)c(Cl)cn3)c(=O)n21)N1CC(F)C1` [Example 375, (5S)-2-{[5-Chloro-4-(trifluoromethyl)pyridin-2-yl]methyl}-5-[(3-fluoroazetidin-1-yl)carbonyl]-5,6,7,8-tetrahydro[1,2,4]triazolo[4,3-a]pyridin-3(2H)-one]: the IC50 was 2.6 nM.
Regarding `N#C[C@@H]1CCCN1C(=O)[C@@H]1CCCc2nn(Cc3ncc(Cl)cc3F)c(=O)n21` [Example 514, (2S)-1-({(5S)-2-[(5-Chloro-3-fluoropyridin-2-yl)methyl]-3-oxo-2,3,5,6,7,8-hexahydro[1,2,4]triazolo[4,3-a]pyridin-5-yl}carbonyl)pyrrolidine-2-carbonitrile], the IC50 came out at 0.061 nM.
As for `O=C(C1CC(C(F)(F)F)Cc2nn(Cc3ccc(C(F)(F)F)nc3)c(=O)n21)N1CC(F)C(F)C1` (single isomer, unassigned) [Example 584], the figure is 50 nM.
